The text below walks through data of patent US9688865B2, “Liquid composition, pigment dispersion liquid, and aqueous ink composition for ink jet recording” (Seiko Epson Corporation, priority 2015, dated 2017).

The nature of series [1]: Distribution coefficient of water-octanol (log P), OECD Test Guideline 107.

The logP is a log measure of how a compound divides between an organic and an aqueous phase. Low readings indicate lower lipophilicity, high ones higher lipophilicity. Molecule `OCC(CO)(CO)CO` [Pentaerythritol] gave a logP in the series “physchem” of -2.36.
Take `CCCCCCCC(=O)OCC(CO)(CO)CO` [Pentaerythritol caprylate, pentaerythritol caprylate]: the log partition coefficient (logP) in series [1] worked out at 2.29.
